Key:
[1] = Tolerability and weight assessment of TgFD9 mice; format: in vivo; settings: oral gavage once daily for 7 days, 10, 30, 60 or 100 mg/kg
Protocol: FIGS. 7C-E show the relative expression of full-length (FL) and Δ20 ELP1 mRNA (left graphs), and ELP1 protein quantification (right graphs) in kidney (FIG. 7C), heart (FIG. 7D) and skin (FIG. 7E) after oral doses of Compound (I) ranging from 10 to 100 mg/kg in adult transgenic TgFD9 mouse (n=4-6 mice in each treatment group). Comparisons were done within the same group, against the vehicle-treated mice. […] The levels of compound were measured using mass spectrometry. In the figure, *p<0.05; **p<0.01; ***p<0.001.
Compound (I) was evaluated in vivo to determine whether splicing correction can lead to a concomitant increase in ELP1 protein. In brief, TgFD9 transgenic mice, which carry the human ELP1 gene with a Exon 20 splice mutation, were treated by oral gavage once daily for 7 days with Compound (I) as a suspension in 0.5% HPMC, 0.1% Tween 80 at a dose of 10, 30, 60 or 100 mg/kg. The mice used for this study were housed in an animal facility, provided with access to food and water ad libitum, and maintained on a 12-hour light/dark cycle. For routine genotyping, genomic DNA was prepared from tail biopsies and PCR was carried out to detect the TgFD9 transgene using the following primers—forward 5′-[…]-3′; reverse, 5′-[…]-3′. Mice were sacrificed 1 hour after the last dose.
The level of splicing correction correlated with Compound (I) tissue distribution (FIGS. 7F-7G).

[2] = test system: ELP1 minigene; assay: Minigene splicing in transfected HEK293T cells, RT-PCR exon inclusion; format: cell-based, human
Protocol: HEK293T cells were seeded in 6-well culture plates at 1.20×10^6 cells/well in D-MEM, 10% FBS, without antibiotics and incubated overnight to reach approximately 90% confluence. Transfection was performed with FuGENE® HD Transfection Reagent (E2311, Promega) using the FuGENE-DNA ratio at 3.5:1 and following manufacturer protocol. After 4 hours of incubation at 37° C., cells were plated at a density of 3×10^4 cells/well in a poly-L-lysine coated 96-well plate for the dual luciferase minigene assay or at the density of 8.5×10^5 cells/well into 6-well plates for minigene transfection. […]
After treatment, the cells were collected and RNA was extracted with QIAzol Lysis Reagent (79306, Qiagen) following the manufacturer's instructions. The yields of the total RNA for each sample were determined using a Nanodrop ND-1000 spectrophotometer. […]
Ratios between isoforms having the middle exon included or excluded were obtained using the integrated density value (IDV) for each correspondent band, and then assessed using Alpha 2000™ Image Analyzer and quantified by ImageJ software. The level of exon inclusion was calculated as previously described^4, where the relative density value of the band represents inclusion and is expressed as a percentage. Validation of the semi-quantitative RT-PCR method for the measurement of exon inclusion was performed using RT-qPCR^4. […]

In the case of Clc1nc(NCc2ccncc2)c2cc[nH]c2n1 [Compound (I), 2-chloro-N-(pyridin-4-ylmethyl)-7H-pyrrolo[2,3-d]pyrimidin-4-amine], the “tolerability, weight loss, adverse effects” value [1] is reported as “well tolerated with no weight loss or adverse effects observed” and the “ELP1 splicing in a minigene system” value [2] is reported as “corrected splicing of ELP1”.

— patent US20230047208A1, “RNA Splicing Modulation” (The General Hospital Corporation, priority 2020, published 2023)
